Measurements published in patent US20070243161A1, “Epigenetic modification of the loci for CAMTA1 and/or FOXP3 as a marker for cancer treatment” (priority 2006, published 2007).

Tests used:
Foxp3 = test: Intracellular Foxp3 expression by FACS in TGF-β-cultured CD25-CD4+ T cells; assay type: cell-based, BALB/c mice
Protocol: Cytometric analysis was performed as previously described (Huehn, J. et al. Developmental stage, phenotype and migration distinguish naive- and effector/memory-like CD4+ regulatory T cells. J Exp Med 199, 303-313 (2004)) using a FACS Calibur or a LSRII (BD Biosciences) and the CellQuest™ software. Dead cells were excluded by PI (propidium iodide) or DAPI (diamidophenylindole) staining (Sigma). Intracellular Foxp3 staining was performed with the PE anti-mouse Foxp3 staining set according to the manufacturers instructions.
D4+ T cells were isolated from pooled spleen and LN single cell suspensions by using anti CD4-FITC plus anti FITC multisort microbeads and the AutoMACS magnetic separation system (Miltenyi Biotec). After release of beads according to the manufacturer's instructions, CD25+ cells were depleted by using anti CD25-APC plus anti APC microbeads. To avoid the expansion of pre-committed Foxp3+ Tregs, the inventors excluded the majority of residual Foxp3+ Tregs from the CD25−CD4+ T cell fraction by sorting for CD62L^high cells using anti CD62L microbeads. MACS-sorted CD62L^highCD25−CD4+ T cells were stimulated for 3 days using plate bound anti CD3 (6 μg/ml) and anti CD28 (4 μg/ml). For Th1 cultures 5 μg/ml anti-IL-4, 20 ng/ml IFN-γ and 5 ng/ml IL-12 was added to the medium. […] Foxp3 expression of sorted CD25+ cells was analyzed by intracellular staining. […]

foxp3 locus = test: Bisulphite sequencing of the foxp3 locus in CD25-CD4+ T cells cultured with TGF-β; assay type: cell-based, BALB/c mice
Text: D4+ T cells were isolated from pooled spleen and LN single cell suspensions by using anti CD4-FITC plus anti FITC multisort microbeads and the AutoMACS magnetic separation system (Miltenyi Biotec). After release of beads according to the manufacturer's instructions, CD25+ cells were depleted by using anti CD25-APC plus anti APC microbeads. To avoid the expansion of pre-committed Foxp3+ Tregs, the inventors excluded the majority of residual Foxp3+ Tregs from the CD25−CD4+ T cell fraction by sorting for CD62L^high cells using anti CD62L microbeads. MACS-sorted CD62L^highCD25−CD4+ T cells were stimulated for 3 days using plate bound anti CD3 (6 μg/ml) and anti CD28 (4 μg/ml). For Th1 cultures 5 μg/ml anti-IL-4, 20 ng/ml IFN-γ and 5 ng/ml IL-12 was added to the medium. For TGF-β cultures 5 ng/ml TGF-β and 10 ng/ml IL-2 was used. After 3 days, cells were removed from the stimulus, transferred to non-coated plates and cultured for another 3 days. All cell culture was done with RPMI 1640 (Gibco) supplemented with 10% FCS (Sigma). On day 6, cultured cells were stained using anti CD25-APC and sorted for CD25+ cells by FACS (Aria). Foxp3 expression of sorted CD25+ cells was analyzed by intracellular staining. For restimulation experiments sorted CD25+ cells were stimulated for 3 days using plate bound anti CD3 (6 μg/ml) and anti CD28 (4 μg/ml) plus IL-2 (10 ng/ml). After 3 days, cells were removed from the stimulus, transferred to non-coated plates and cultured for another 3 days. On day 6, cultured cells were stained for CD25 and Foxp3 as described above.
Genomic DNA was isolated from purified T cells using the DNeasy tissue kit (Qiagen) following the supplier's recommendations. Sodium bisulphite treatment of genomic DNA was performed according to Olek et al. (Olek, A., Oswald, J. and Walter, J. A modified and improved method for bisulphite based cytosine methylation analysis. Nucleic Acids Res 24, 5064-6 (1996)) with minor modifications, resulting in the deamination of unmethylated cytosines to uracil, whereas methylated cytosines remain unchanged. In a subsequent PCR amplification uracils were replicated as thymidines. Thus, detection of a “C” in sequencing reactions reflects methylation of the genomic DNA at that site. Detection of a “T” at the same site instead reflects the absence of a methyl modification of the genomic cytosine.
PCRs were performed on MJ Research thermocyclers (Waltham) in a final volume of 25 μl containing 1×PCR Buffer, 1 U Taq DNA polymerase (Qiagen), 200 μM dNTPs, 12.5 pmol each of forward and reverse primers, and 7 ng of bisulphite-treated genomic DNA. The amplification conditions were 95° C. for 15 min and 40 cycles of 95° C. for 1 min, 55° C. for 45 sec and 72° C. for 1 min and a final extension step of 10 min at 72° C. PCR products were purified using ExoSAP-IT USB Corp.) and sequenced in both directions applying the PCR primers and the ABI Big Dye Terminator v1.1 cycle sequencing chemistry (Applied Biosystems) followed by capillary electrophoresis on an ABI 3100 genetic analyzer. Trace files were interpreted using ESME, which normalizes sequence traces, corrects for incomplete bisulphite conversion and allows for quantification of methylation signals (Lewin, J., Schmitt, A. O., Adorjan, P., Hildmann, T. and Piepenbrock, C. Quantitative DNA methylation analysis based on four-dye trace data from direct sequencing of PCR amplificates. Bioinformatics 20, 3005-12 (2004)). For each sample both PCR amplification and sequencing was repeated once. The following primers (5′ to 3′ direction) were used for both PCR amplification of bisulphite converted genomic DNA and sequence reactions: […]

[1] = cell culture in the presence of TGF-β
[2] = sorted CD25+ cells, day 6 TGF-β culture, exp. 1
[3] = sorted CD25+ cells, day 6 TGF-β culture, exp. 2

TGF-β: cytokine (R and D Systems) added at 5 ng/ml with IL-2 to induce Foxp3+ Tregs from CD25-CD4+ T cells
Foxp3+ cells among TGF-β-cultured cells (Foxp3; CD25-CD4+ T cells activated and cultured 6 days with TGF-β, day 6): > 98%
Foxp3 expression after restimulation (Foxp3; TGF-β-induced Tregs restimulated 6 days in the absence of TGF-β): lost Foxp3 expression
methylation of CpG motifs in amplicons 3 and 4 (foxp3 locus; [1]): fully methylated
methylation of CpG motifs within region covered by amplicons 1 and 2 (foxp3 locus; [1]): clearly visible demethylation
degree of methylation, CpG motif amplicon 1 (158) (foxp3 locus; [2]): 100%
degree of methylation, CpG motif amplicon 1 (180) (foxp3 locus; [2]): 92%
degree of methylation, CpG motif amplicon 1 (308) (foxp3 locus; [2]): 63%
degree of methylation, CpG motif amplicon 1 (344) (foxp3 locus; [2]): 41%
degree of methylation, CpG motif amplicon 1 (360) (foxp3 locus; [2]): 60%
degree of methylation, CpG motif amplicon 1 (394) (foxp3 locus; [2]): 28%
degree of methylation, CpG motif amplicon 1 (421) (foxp3 locus; [2]): 42%
degree of methylation, CpG motif amplicon 1 (426) (foxp3 locus; [2]): 48%
degree of methylation, CpG motif amplicon 2 (205) (foxp3 locus; [2]): 74%
degree of methylation, CpG motif amplicon 2 (224) (foxp3 locus; [2]): 72%
degree of methylation, CpG motif amplicon 2 (228) (foxp3 locus; [2]): 100%
degree of methylation, CpG motif amplicon 2 (236) (foxp3 locus; [2]): 75%
degree of methylation, CpG motif amplicon 2 (298) (foxp3 locus; [2]): 64%
degree of methylation, CpG motif amplicon 2 (368) (foxp3 locus; [2]): 39%
degree of methylation, CpG motif amplicon 3 (93) (foxp3 locus; [2]): 100%
degree of methylation, CpG motif amplicon 3 (170) (foxp3 locus; [2]): 100%
degree of methylation, CpG motif amplicon 3 (173) (foxp3 locus; [2]): 100%
degree of methylation, CpG motif amplicon 3 (176) (foxp3 locus; [2]): 100%
degree of methylation, CpG motif amplicon 3 (281) (foxp3 locus; [2]): 100%
degree of methylation, CpG motif amplicon 4 (69) (foxp3 locus; [2]): 100%
degree of methylation, CpG motif amplicon 4 (311) (foxp3 locus; [2]): 100%
degree of methylation, CpG motif amplicon 4 (315) (foxp3 locus; [2]): 100%
degree of methylation, CpG motif amplicon 4 (319) (foxp3 locus; [2]): 100%
degree of methylation, CpG motif amplicon 4 (338) (foxp3 locus; [2]): 90%
degree of methylation, CpG motif amplicon 4 (371) (foxp3 locus; [2]): 100%
degree of methylation, CpG motif amplicon 1 (158) (foxp3 locus; [3]): 100%
degree of methylation, CpG motif amplicon 1 (180) (foxp3 locus; [3]): 93%
degree of methylation, CpG motif amplicon 1 (308) (foxp3 locus; [3]): 75%
degree of methylation, CpG motif amplicon 1 (344) (foxp3 locus; [3]): 41%
degree of methylation, CpG motif amplicon 1 (360) (foxp3 locus; [3]): 70%
degree of methylation, CpG motif amplicon 1 (394) (foxp3 locus; [3]): 38%
degree of methylation, CpG motif amplicon 2 (205) (foxp3 locus; [3]): 67.5%
degree of methylation, CpG motif amplicon 2 (224) (foxp3 locus; [3]): 75%
degree of methylation, CpG motif amplicon 2 (228) (foxp3 locus; [3]): 90%
degree of methylation, CpG motif amplicon 2 (236) (foxp3 locus; [3]): 66%
degree of methylation, CpG motif amplicon 2 (298) (foxp3 locus; [3]): 43%
degree of methylation, CpG motif amplicon 2 (368) (foxp3 locus; [3]): 50%
degree of methylation, CpG motif amplicon 3 (170) (foxp3 locus; [3]): 100%
degree of methylation, CpG motif amplicon 3 (173) (foxp3 locus; [3]): 100%
degree of methylation, CpG motif amplicon 3 (176) (foxp3 locus; [3]): 100%
degree of methylation, CpG motif amplicon 3 (281) (foxp3 locus; [3]): 96%
degree of methylation, CpG motif amplicon 4 (69) (foxp3 locus; [3]): 100%
degree of methylation, CpG motif amplicon 4 (311) (foxp3 locus; [3]): 100%
degree of methylation, CpG motif amplicon 4 (315) (foxp3 locus; [3]): 100%
degree of methylation, CpG motif amplicon 4 (319) (foxp3 locus; [3]): 100%
degree of methylation, CpG motif amplicon 4 (338) (foxp3 locus; [3]): 100%
degree of methylation, CpG motif amplicon 4 (371) (foxp3 locus; [3]): 100%
